From patent publication US11931347B2, “Method of screening for agents for differentiating stem cells” (MINERVA BIOTECHNOLOGIES CORPORATION, priority 2015, dated 2024)
pIC50: −log10 of the molar value. Each block holds one compound with its values, some of them ahead of it.

How the values were obtained:
[1] = tested on: human primed state stem cells; assay: stem cell drug screening assay on primed state stem cells; assay type: cell-based; set-up: key to effect on primed state stem cells, score: “−” indicates that at 6 uM the drug candidate did not have an obvious effect on the pluripotency or proliferation of the stem cells; A “+” indicates a mild effect; a score of −, or +, ++, +++, or ++++ is given; a score of −, or +, ++, +++, or ++++ is given; “++++” indicates a profound effect on pluripotency or proliferation
Procedure: (§1) The stem cell screening assay, was performed in both the presence and absence of the stem cell growth factors: NME7AB for growing naïve stem cells or FGF for growing primed stem cells. If the cognate growth factor was present, then the biological or small molecule would have to compete away the growth factor to get an effect. Therefore, we expected to see more of an effect when the growth factor, FGF for primed stem cells or NME7AB or NME1 dimers for naïve stem cells, was absent. The effect of the compounds on stem cells was visually determined and compounds were ranked 0-4, with 4 being the greatest effect and 0 being no observable effect. The major effect that was observed was a change from pluripotent stem cell morphology, which is a cobblestone pattern of small round cells with a large nucleus to cytoplasm ratio, to that of differentiating stem cells, which are elongated, large and flattened cells with a smaller nucleus to cytoplasm ratio. […] The compounds were added to a final concentration of 6 uM to either naïve state stem cells or primed state stem cells. In this particular case, the naïve state stem cells were maintained in a naïve state by culturing in a media containing NME7AB or NME1 dimers. However, other methods such as 2i and 5i (Silva et al., 2008, Nichols and Smith, 2009, Theunissen et al., 2014)] can be used to maintain stem cells in a more naïve state. In this case primed state stem cells were cultured in bFGF over a layer of MEFs, although it is known that any bFGF containing media will maintain stem cells in the primed state.
Stem cells whether embryonic or induced pluripotent stem (iPS) cells were cultured in a minimal, serum-free media that contained human recombinant bFGF at a concentration of 8 ng/mL. The stem cells were plated over a layer of inactivated mouse embryonic fibroblasts, aka MEFs, which secrete additional uncharacterized growth factors and cytokines.
(§2) Human naïve state and primed stem cells were cultured in parallel for at least 5 passages to guarantee normal differentiation-free growth. The stem cells were plated in 12-well cell culture plates with 50,000 cells per well. Cells were cultured in their respective media, either bFGF media or NME7AB media for 24 hours. Media was then removed and replaced with media devoid of bFGF or NME7AB, when indicated. Agents being tested for their ability to induce differentiation of naïve stem cells were added to the media at the concentrations indicated. After 72 hours, photographs were taken see FIGS. 1-10.
(§3) Human naïve state and primed stem cells were cultured in parallel for at least 5 passages to guarantee normal differentiation-free growth. The stem cells were plated in 12-well cell culture plates with 50,000 cells per well. Cells were cultured in their respective media, either bFGF media or NME7AB media for 24 hours. Media was then removed and replaced with media devoid of bFGF or NME7AB. […] Media was changed after 48 hours and replaced with fresh media containing the BRD4 inhibitors. After 4 days the experiment was stopped. Photographs were taken and cell pellets collected for further analysis, see FIGS. 11-16.

T47D breast cancer cells [2] = assay: cancer cell proliferation assay (Calcein live cell stain); assay type: cell-based, human; conditions: for inhibition of cancer cell proliferation relative to parent compounds: T47D, Calcein assay after 120 hours, 40-2.5 uM
Procedure: These analogs of MN1194 and 1186 were also tested in a cell growth assay (FIGS. 107A1-107H6 and FIG. 108A1-108H6, respectively). In this experiment, both parent compound and analogs thereof were added to normal cell culture media to final concentrations of 40 uM, 20 uM, 10 uM, 5 uM or 2.5 uM. For comparison, previously known cancer cell migration inhibitors SU11274 and MN1204 were included in the same experiment. […] Relative cell proliferation is quantified on a standard plate reader that reads the fluorescence of the Calcein that is taken up by live cells.
Small molecule inhibition of cancer cell proliferation studies were also performed on several cancer sub-types. […] The small molecules of the invention had the most robust effect on T47D breast cancer cells, which are highly positive for MUC1* growth factor receptor, and its activating ligands NME7AB and NME7-X1.
(§4) For the cancer cell proliferation experiment cancer cells were plated at constant densities (6000 cells/well) into a 96-well White-walled/Clear-bottom Tissue Culture Treated plate (Corning Incorporated, Big Flats, N.Y.). Small molecule analogs are added at T=24 hours in media with 2% FBS. Following the addition of the small molecules, the cells remain untouched for 120 hours with visual confirmations/inspections at 24, 48, 72 and 96 hours post plating. At the 120 hour mark a calcein fluorescence assay (Thermo Fisher Scientific, Waltham, Mass.) is performed on the plate. Calcein fluorescence (final concentration 0.5 uM) is used to assess cell viability. Cancer cell fluorescence is measured in a TECAN SAFIRE^2 spectrophotometer plate reader. The plate is then imaged using an Olympus IX71 fluorescence imaging microscope and montage of the resulting images are assembled using ImageJ.

[3] = tested on: DU145 MUC1* positive prostate cancer cells; assay: cancer cell proliferation assay (Calcein); assay type: cell-based; conditions: 96 hours (FIG. 109)
Procedure: as §4, with “Small molecule inhibition of cancer cell proliferation studies were also performed on several cancer sub-types. […] The small molecules of the invention had the most robust effect on T47D breast cancer cells, which are highly positive for MUC1* growth factor receptor, and its activating ligands NME7AB and NME7-X1. […] For” for “For”

[4] = tested on: MDA-MB-453 breast cancer cells; assay: cancer cell proliferation assay (Calcein); assay type: cell-based; conditions: 96 hours (FIG. 110)
Procedure: as §4, with “Small molecule inhibition of cancer cell proliferation studies were also performed on several cancer sub-types. […] The small molecules of the invention had the most robust effect on T47D breast cancer cells, which are highly positive for MUC1* growth factor receptor, and its activating ligands NME7AB and NME7-X1. […] For” for “For”

[5] = tested on: PC-3 MUC1* negative, NME7AB positive prostate cancer cells; assay: cancer cell proliferation assay (Calcein); assay type: cell-based; conditions: 96 hours (FIG. 111)
Procedure: as §4, with “Small molecule inhibition of cancer cell proliferation studies were also performed on several cancer sub-types. […] The small molecules of the invention had the most robust effect on T47D breast cancer cells, which are highly positive for MUC1* growth factor receptor, and its activating ligands NME7AB and NME7-X1. […] For” for “For”

[6] = tested on: human naïve state stem cells; assay: stem cell drug screening assay on naïve state stem cells; assay type: cell-based; set-up: key to effect on naïve stem cells, score: “−” indicates that at 6 uM the drug candidate did not have an obvious effect on the pluripotency or proliferation of the stem cells; A “+” indicates a mild effect; a score of −, or +, ++, +++, or ++++ is given; a score of −, or +, ++, +++, or ++++ is given; “++++” indicates a profound effect on pluripotency or proliferation; conditions: 6 uM, 3 days, NME7AB absent
Procedure: as §1
Stem cells whether embryonic or induced pluripotent stem (iPS) cells were cultured in a minimal, serum-free media that contained human recombinant NME7AB at a concentration of 2-32 nM wherein 4-8 nM is preferred and 4 nM is more preferred. To facilitate surface attachment, cell culture plates were coated with an anti-MUC1* monoclonal antibody called MN-C3 or C3 or MN-C8 at a concentration of 2-100 ug/mL coating solution, wherein 3-50 ug/mL is preferred and 6-12.5 ug/mL is more preferred. In these experiments, 12.5 ug/mL of MN-C3 was used. Antibody coated plates were incubated at 4 degrees C. overnight prior to plating stem cells. A Rho kinase I inhibitor was added to enhance surface attachment. In some cases, NME7AB was substituted with human recombinant NME1 dimers which also induce stem cells to revert to a naïve-like state.
as §2, §3

T47D breast cancer cells [7] = assay: cancer cell migration, invasion assay (Platypus/Oris system); assay type: cell-based, human; conditions: T47D; for inhibition of cancer cell migration: 120 hours; for pIC50: Homo sapiens, curves calculated from 72 hour post dosing time point, read-out: IC50 of inhibition of cancer cell migration
Procedure: We then tested an expanded panel of agents, including agents known to inhibit cancer growth or migration (FIG. 17) (Horm et al., 2012; Meng & Yue, 2014; Zhen et al., 2014), which is characteristic of aggressive or metastatic cancers. We also synthesized a series of novel small molecules, tested them in the stem cell drug screening assay, and then synthesized analogs of the best hits. These small molecules are pictured in FIGS. 18-27. Both the known compounds and the novel compounds were tested in the stem cell drug screening assay. The effects of the small molecules on naïve versus primed state stem cells are shown in the photographs of FIGS. 29-72. The small molecules pictured in FIGS. 17-27 and the biologicals were also tested in a cancer cell migration assay. A structure activity relationship table is seen in FIG. 28. Potent cancer cell migration is characteristic of cancer cell invasion of other tissues and of metastasis. Typical migration assays involve coating a cell culture plate with fibronectin, collagen or the like, plating cancer cells and making a scar across through the cells and measuring the time it takes for the cancer cells to invade the void space. An alternative approach that gives more reliable data is the Platypus System which is a special multi-well cell culture plate with a juxtaposed set of plugs that block off a circle in the center of each well. Cancer cells are plated while the plugs are in place, then they are removed after the cells attach to the plate surface. […] A bar graph summarizing the results of the known anti-migration compounds compared to the anti-MUC1* Fab E6 and the first few small molecules synthesized is shown in FIG. 73. The effect of two novel small molecules MN1186 and MN1194, compared to the known anti-migration molecule SU11274, is shown in FIG. 75A-75U. FIG. 75V is a graph showing the measured inhibition of cancer cell migration at time 0, 24 hours or 48 hours for a number of compounds. […] FIG. 75X is a graph showing how IC50's of the small molecules of the invention were measured and calculated.
Percent inhibition of cancer cell migration was performed in a wound healing assay. The Percent area that the invading cancer cells occupied, in the presence of a drug candidate compared to the controls, was quantified by Image J cell software which enables cell counting from photographs. IC50's were calculated by performing migration experiments at several compound concentrations and then applying Hill's equation. Inhibition of cancer cell proliferation was quantified by automated cell counting in the presence or absence of a drug candidate. Here, the potency of the drug candidate was simply scored 4 for the highest degree of inhibition and 0 for the lowest. […] The effect of each drug candidate was scored 0-4, with 4 being the highest in inhibiting cell proliferation (FIG. 28).
For the cancer cell migration experiment cancer cells were plated at varying densities into an Oris Cell Migration Assay Collagen-1 coated 96-well plate (Platypus Technologies LLC, Madison, Wis.). The Collagen-1 coated 96-well plate incorporates a specific vacuum plug which attaches to the bottom of each well, creating an area in which the cells cannot grow into. Once the cells have been plated at high densities into each well, they are allotted an 18-24 hour time period to attach to the bottom of the wells. Post-24 hour plugs are removed from the plate and then small molecule analogs are added to the wells. Images are taken of each well and represent time 0 (T=0) for each well. Images are taken of the wells at the 24, 48, 72, 96 and 120 hour time points. Data analysis is conducted using the images taken at these specific time point. Images are imported into ImageJ (Rasband, W. S., ImageJ, U. S. National Institutes of Health, Bethesda, Md., USA, http://imagej.nih.gov/ij/, 1997-2016.) and the area remaining free of cells is calculated. […]

SMILES: Cc1sc2c(c1C)C(c1ccc(Cl)cc1)=N[C@@H](CC(=O)OC(C)(C)C)c1nnc(C)n1-2 [JQ1(−), JQ1]
induction of differentiation of primed state stem cells ([1]; treated for 3 days, bFGF absent): None of these agents appeared to induce differentiation

SMILES: CC(C)CC1c2[nH]c3ccccc3c2CCN1C(=O)CCc1ccccc1 (stereo not drawn) [MN1133]
inhibition of growth of T47D cells (T47D breast cancer cells [2]; live cell Calcein stain, 96 hours (FIG. 113)): severely inhibited growth
inhibition of growth of DU145 cells [3]: inhibited the growth
inhibition of growth of MDA-MB-453 cells [4]: inhibited the growth
inhibition of growth of PC-3 cells [5]: inhibited the growth

SMILES: CC(C)CC1c2[nH]c3ccccc3c2CCN1C(=O)CNC(=O)OC(C)(C)C (stereo not drawn) [MN1186]
effect on naïve stem cells, score [6]: ++++
effect on primed state stem cells, score ([1]; 6 uM, 3 days, FGF absent): ++
inhibition of cancer cell migration (T47D breast cancer cells [7]): most potent inhibitors of cancer cell migration

SMILES: CC(C)CC1c2[nH]c3ccccc3c2CCN1C(=O)CCCNC(=O)OC(C)(C)C (stereo not drawn) [MN1190]
inhibition of cancer cell migration (T47D breast cancer cells [7]): improvements over MN1186
inhibition of cancer cell proliferation relative to parent compounds (T47D breast cancer cells [2]): inhibit cancer cell proliferation better than parent compounds

SMILES: CC(C)CC1c2[nH]c3ccccc3c2CCN1C(=O)CCCCNC(=O)OC(C)(C)C (stereo not drawn) [MN1194]
effect on naïve stem cells, score [6]: ++++
effect on primed stem cell pluripotency, growth or differentiation (visually determined) ([1]; 6 uM, 3 days): barely affected
inhibition of cancer cell migration (T47D breast cancer cells [7]): most potent inhibitors of cancer cell migration

SMILES: CC(C)CC1c2[nH]c3ccccc3c2CCN1C(=O)CCCCCNC(=O)OC(C)(C)C (stereo not drawn) [MN1195]
inhibition of cancer cell migration (T47D breast cancer cells [7]): improvements over MN1186
inhibition of cancer cell proliferation relative to parent compounds (T47D breast cancer cells [2]): inhibit cancer cell proliferation better than parent compounds

SMILES: CC(C)CC1c2[nH]c3cc(Cl)ccc3c2CCN1C(=O)CNC(=O)OC(C)(C)C (stereo not drawn) [MN1228]
inhibition of cancer cell migration (T47D breast cancer cells [7]): improvements over MN1186
inhibition of cancer cell proliferation relative to parent compounds (T47D breast cancer cells [2]): inhibit cancer cell proliferation better than parent compounds

SMILES: CC(C)CC1c2[nH]c3cc(F)ccc3c2CCN1C(=O)CCCCNC(=O)OC(C)(C)C (stereo not drawn) [MN1229]
inhibition of cancer cell migration (T47D breast cancer cells [7]): improvements over MN1186
inhibition of cancer cell proliferation relative to parent compounds (T47D breast cancer cells [2]): inhibit cancer cell proliferation better than parent compounds

pIC50 (T47D breast cancer cells [7]): 6.11
SMILES: Cc1ccc2[nH]c3c(c2c1)CCN(C(=O)C1CCC(CNC(=O)OC(C)(C)C)CC1)C3CC(C)C (stereo not drawn) [MN1265]

pIC50 (T47D breast cancer cells [7]): 5.89
SMILES: CC(C)CC1c2[nH]c3ccc(F)cc3c2CCN1C(=O)C1CCC(CNC(=O)OC(C)(C)C)CC1 (stereo not drawn) [MN1266]
